In data set [1] the target is T1, porcine pancreatic lipase (Sus scrofa, UniProt P00591).
T1 sequence (P00591 1-450): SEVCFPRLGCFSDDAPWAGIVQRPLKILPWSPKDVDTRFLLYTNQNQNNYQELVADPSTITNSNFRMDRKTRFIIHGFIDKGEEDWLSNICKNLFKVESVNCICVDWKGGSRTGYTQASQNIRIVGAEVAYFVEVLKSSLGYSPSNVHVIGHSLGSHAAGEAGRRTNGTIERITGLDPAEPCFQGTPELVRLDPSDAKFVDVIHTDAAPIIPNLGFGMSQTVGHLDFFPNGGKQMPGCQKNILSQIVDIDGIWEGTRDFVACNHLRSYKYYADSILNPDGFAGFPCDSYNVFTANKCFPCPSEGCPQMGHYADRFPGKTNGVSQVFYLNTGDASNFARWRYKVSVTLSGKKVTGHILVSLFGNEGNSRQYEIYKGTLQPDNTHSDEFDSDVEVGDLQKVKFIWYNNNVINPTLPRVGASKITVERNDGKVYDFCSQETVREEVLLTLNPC
Kind of data set: Fluorescence titration of lipase. Format: binding. Conditions: for n (number of binding sites) / binding affinity with lipase (in words): fluorescence titration; for n (number of binding sites): excitation 280 nm, Tris-HCl pH 8.0.

The target in data set [2] is T1, porcine pancreatic lipase. Description: Inhibitory activity on pancreatic lipase. Conditions: IC50, pNPP substrate, Tris-HCl pH 8.0, 37 °C, means ± SD of triplicate.
The subject of the next data set is pancreatic lipase. Conditions: ref Kumar and Alagawadi, 2013; cited from earlier work.
The conditions of data set [3]: rats, cited from earlier work.
For data set [4] the following is noted: ref Zhi et al., 1999; cited from earlier work.
The mark [5] stands for this setting: oral administration, ref Zhou et al., 2021.

Broadly, the Kd is a measure of binding affinity in units of concentration. Broadly, the IC50 is the concentration needed to halve the response being measured.

As to `O=c1cc(-c2ccc(O)cc2)oc2cc(O)cc(O)c12` [Apigenin], in data set [1], binding was put at a Kd of 3.86 µM and the “n (number of binding sites)” value is listed as 1.156. In addition, the IC50 in data set [2] turned out to be 256 ± 54 µM.

Regarding `C[C@@H]1O[C@@H](O[C@H]2C(=O)c3c(O)cc(O)cc3O[C@@H]2c2ccc(O)c(O)c2)[C@H](O)[C@H](O)[C@H]1O` [Astilbin], in data set [1], the Kd is 151 µM and the “n (number of binding sites)” value stood at 0.850. In data set [2], this compound gave an IC50 of 7316 ± 66 µM.

On to `O=c1cc(-c2ccccc2)oc2cc(O)c(O)c(O)c12` [Baicalein], for which, in data set [1], binding was characterised by a dissociation constant (Kd) of 0.671 µM and the “n (number of binding sites)” value was found to be 1.270. In data set [2], 156 ± 22 µM corresponded to half-maximal inhibition (IC50).

For `O=c1cc(-c2ccccc2)oc2cc(O)cc(O)c12` [Chrysin], in data set [1], the Kd was 16.3 µM and the “n (number of binding sites)” value is on record as 0.964. For the same compound, in data set [2], the IC50 was above 593 µM.

Consider `O=c1c(-c2ccc(O)cc2)coc2cc(O)ccc12` [Daidzein], for which, in data set [1], the Kd is 11.6 µM and the “n (number of binding sites)” value is recorded as 1.101. The compound further showed an IC50 in data set [2] of 852 ± 667 µM.

As to `O=c1c(-c2ccc(O)cc2)coc2cc(O[C@@H]3O[C@H](CO)[C@@H](O)[C@H](O)[C@H]3O)ccc12` [Daidzin], in data set [1], the equilibrium dissociation constant (Kd) is 141 µM and the “n (number of binding sites)” value turned out to be 0.877. The IC50 in data set [2] was above 1150 µM.

As to `O=C1c2c(O)cc(O)cc2O[C@H](c2cc(O)c(O)c(O)c2)[C@H]1O` [Dihydromyricetin], in data set [1], the Kd is 105 µM and the “n (number of binding sites)” value is on record as 0.911. Also, the IC50 in data set [2] amounted to 7170 ± 418 µM.

As to `Oc1cc(O)c2c(c1)O[C@H](c1ccc(O)c(O)c1)[C@H](O)C2` [Epicatechin], in data set [1], the Kd is 3160 µM, the “binding affinity with lipase (in words)” value was “very weak binding affinity” and the “n (number of binding sites)” value turned out to be 0.734. This compound had an IC50 in data set [2] above 20700 µM.

With `Oc1cc(O)c2c(c1)O[C@H](c1cc(O)c(O)c(O)c1)[C@H](O)C2` [Epigallocatechin], in data set [1], the Kd is 5820 µM, the “binding affinity with lipase (in words)” value was “very weak binding affinity” and the “n (number of binding sites)” value stood at 0.670. In data set [2], the IC50 is above 49000 µM.

Regarding `COc1ccc(-c2coc3cc(O)ccc3c2=O)cc1` [Formononetin], in data set [1], the Kd was 83.2 µM and the “n (number of binding sites)” value is 0.926. Further, the IC50 in data set [2] was above 1860 µM.

Turning to `O=c1c(O)c(-c2ccccc2)oc2cc(O)cc(O)c12` [Galangin], in data set [1], the affinity, expressed as Kd, was 13.7 µM and the “n (number of binding sites)” value was 1.097. Further, the “inhibition on pancreatic lipase activity” value with pancreatic lipase was “dose-dependent inhibition”. In addition, the anti-obesity effects entry in data set [3] (ref Kumar and Alagawadi, 2013) was “exhibited anti-obesity effects”. In data set [2], this compound registered an IC50 of 574 ± 132 µM.

Turning to `O=c1c(-c2ccc(O)cc2)coc2cc(O)cc(O)c12` [Genistein], in data set [1], the Kd was 4.94 µM and the “n (number of binding sites)” value was found to be 1.129. Also, the IC50 in data set [2] is above 2960 µM.

In the case of `O=c1c(-c2ccc(O)cc2)coc2cc(O[C@@H]3O[C@H](CO)[C@@H](O)[C@H](O)[C@H]3O)cc(O)c12` [Genistin], in data set [1], binding was characterised by a dissociation constant (Kd) of 10.8 µM and the “n (number of binding sites)” value is 1.086. Besides, the IC50 in data set [2] is above 925 µM.

As to `COc1ccc([C@@H]2CC(=O)c3c(O)cc(O)cc3O2)cc1O` [Hesperetin], in data set [1], the Kd was 41.4 µM and the “n (number of binding sites)” value amounted to 0.998. Further, the IC50 in data set [2] was 3030 ± 829 µM.

Regarding `O=c1cc(-c2ccc(O)c(O)c2)oc2cc(O)c([C@@H]3O[C@H](CO)[C@@H](O)[C@H](O)[C@H]3O)c(O)c12` [Isoorientin], in data set [1], the Kd was 4.66 µM and the “n (number of binding sites)” value was 1.278.

Consider `O=c1c(O)c(-c2ccc(O)cc2)oc2cc(O)cc(O)c12` [Kaempferol], for which, in data set [1], the Kd is 4.06 µM and the “n (number of binding sites)” value was 1.163. Also, the IC50 in data set [2] was above 983 µM.

With `O=c1cc(-c2ccc(O)c(O)c2)oc2cc(O)cc(O)c12` [Luteolin], in data set [1], the Kd is 0.156 µM and the “n (number of binding sites)” value was 1.435. In addition, in data set [2], the IC50 is 99 ± 11 µM.

Turning to `O=C1C[C@@H](c2ccc(O)cc2)Oc2cc(O)cc(O)c21` [Naringenin], in data set [1], the dissociation constant Kd is 33.3 µM and the “n (number of binding sites)” value was determined as 1.013. Half-maximal inhibition in data set [2] (IC50) required 6032 ± 41 µM.

As to `COc1ccc(-c2coc3cc(O[C@@H]4O[C@H](CO)[C@@H](O)[C@H](O)[C@H]4O)ccc3c2=O)cc1` [Ononin], in data set [1], the Kd was 10.9 µM and the “n (number of binding sites)” value is given as 1.086. This compound had a half-inhibitory concentration (IC50) in data set [2] above 1160 µM.

Turning to `CCCCCCCCCCC[C@@H](C[C@@H]1OC(=O)[C@H]1CCCCCC)OC(=O)[C@H](CC(C)C)NC=O` [Orlistat], the “absorption in circulatory blood” value in data set [4] was “poorly absorbed”.

As to `O=c1c(-c2ccc(O)cc2)coc2c([C@@H]3O[C@H](CO)[C@@H](O)[C@H](O)[C@H]3O)c(O)ccc12` [Puerarin], in data set [1], binding was characterised by a dissociation constant (Kd) of 1.43 µM and the “n (number of binding sites)” value came out at 1.232. In data set [2], this compound yielded an IC50 of 16800 ± 692 µM.

Regarding `O=c1c(O)c(-c2ccc(O)c(O)c2)oc2cc(O)cc(O)c12` [Quercetin], in data set [1], the “n (number of binding sites)” value was found to be 1.419. In addition, in data set [3] (setting [5]), the “fat absorption in the gastrointestinal tract” value is given as “significantly reduced fat absorption” and the “fat excretion in feces” value is reported as “increased fat excretion in feces”.

As for `C[C@@H]1O[C@@H](OC[C@H]2O[C@@H](Oc3c(-c4ccc(O)c(O)c4)oc4cc(O)cc(O)c4c3=O)[C@H](O)[C@@H](O)[C@@H]2O)[C@H](O)[C@H](O)[C@H]1O` [Rutin], in data set [1], binding was characterised by a dissociation constant (Kd) of 5.38 µM and the “n (number of binding sites)” value came out at 1.115. The compound further displayed an IC50 in data set [2] of 367 ± 182 µM.

For `O=C1c2c(O)cc(O)cc2OC(c2ccc(O)c(O)c2)C1O` (stereo not shown) [Taxifolin], in data set [1], the Kd is 56.2 µM and the “n (number of binding sites)” value is on record as 0.956. In addition, the IC50 in data set [2] amounted to 3870 ± 939 µM.

The values above are taken from paper PMC9813676 (Current Research in Food Science, 2022).
